Tested on: c-myc in 22RV-1 cells
Assay: Human c-myc ELISA assay
Assay type: cell-based
Conditions: Homo sapiens; for Emax: 22Rv1, 18 h, read-out: Degradation of BRD4: Maximum inhibition (%) c-Myc ELISA in 22RV1 cells; for DC50: 22Rv1, read-out: Degradation of BRD4: DC50 (uM) c-Myc ELISA in 22RV1 cells
How it was run: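 c-myc levels measured by ELISA in RIPA lysates of 22RV-1 cells, calibrated with a 333-0 pg/ml standard curve. Lysates came from cells exposed for 18 h to an 8-point, 1:3 dose series starting at 300 nM or 1 μM final in 0.1% DMSO. Suppression potency given as DC50.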

| Structure (SMILES) | Emax [%] | DC50 [µM] |
| --- | --- | --- |
| Cc1ncsc1-c1ccc([C@H](C)NC(=O)[C@@H]2C[C@@H](O)CN2C(=O)[C@@H](NC(=O)Cc2ccc(-c3cn([C@@H](C)CNC(=O)C[C@@H]4N=C(c5ccc(Cl)cc5)c5c(sc(C)c5C)-n5c(C)nnc54)cn3)cc2)C(C)(C)C)cc1 [Example 341] | 98.5 | < 0.01 |
| Cc1ncsc1-c1ccc(CNC(=O)[C@@H]2C[C@@H](O)CN2C(=O)[C@@H](c2cc(OCCCCCNC(=O)C[C@@H]3N=C(c4ccc(Cl)cc4)c4c(sc(C)c4C)-n4c(C)nnc43)no2)C(C)C)cc1 [Example 121] | 98.5 | < 0.01 |
| Cc1ncsc1-c1ccc(CNC(=O)[C@@H]2C[C@@H](O)CN2C(=O)[C@@H](NC(=O)COCCOCCOCCOCCNC(=O)C[C@@H]2N=C(c3ccc(Cl)cc3)c3c(sc(C)c3C)-n3c(C)nnc32)C(C)(C)C)cc1 [Example 38] | 94 | 0.01 to 0.1 |
| Cc1ncsc1-c1ccc(CNC(=O)C2C[C@@H](O)CN2C(=O)[C@@H](NC(=O)COc2ccccc2OCCCNC(=O)C[C@@H]2N=C(c3ccc(Cl)cc3)c3c(sc(C)c3C)-n3c(C)nnc32)C(C)(C)C)cc1 (stereo partly drawn) [Example 107] | 86.6 | 0.01 to 0.1 |
| Cc1ncsc1-c1ccc(CNC(=O)[C@@H]2C[C@@H](O)CN2C(=O)[C@@H](C(C)C)n2cc(-c3ccnc(O[C@H](C)CNC(=O)C[C@@H]4N=C(c5ccc(Cl)cc5)c5c(sc(C)c5C)-n5c(C)nnc54)c3)cn2)cc1 [Example 167] | 27.6 | > 1 |
| Cc1ncsc1-c1ccc([C@H](C)NC(=O)[C@@H]2C[C@@H](O)CN2C(=O)[C@H](C(C)C)n2cc(-c3ccnc(N4CCN(C(=O)C[C@@H]5N=C(c6ccc(Cl)cc6)c6c(sc(C)c6C)-n6c(C)nnc65)CC4)c3)cn2)cc1 [Example 322] | 92.6 | < 0.01 |
| Cc1ncsc1-c1ccc(CNC(=O)[C@@H]2C[C@@H](O)CN2C(=O)[C@@H](c2cnn(CCCOCCNC(=O)C[C@@H]3N=C(c4ccc(Cl)cc4)c4c(sc(C)c4C)-n4c(C)nnc43)c2)C(C)C)cc1 [Example 144] | 73 | 0.1 to 1 |
| Cc1ncsc1-c1ccc(CNC(=O)[C@@H]2C[C@@H](O)CN2C(=O)[C@H](C(C)C)n2cc(-c3ccnc(O[C@H]4C[C@@H](NC(=O)C[C@@H]5N=C(c6ccc(Cl)cc6)c6c(sc(C)c6C)-n6c(C)nnc65)C4)c3)cn2)cc1 [Example 178, (2S,4R)-4-hydroxy-N-{[4-(4-methyl-1,3-thiazol-5-yl)phenyl]methyl}-1-[(2S)-3-methyl-2-(4-{2-[(1,3-cis)-3-{2-[(9S)-7-(4-chlorophenyl)-4,5,13-trimethyl-3-thia-1,8,11,12-tetraazatricyclo[8.3.0.0^2,6]trideca-2(6),4,7,10,12-pentaen-9-yl]acetamido}cyclobutoxy]pyridin-4-yl}-1H-pyrazol-1-yl)butanoyl]pyrrolidine-2-carboxamide] | 99 | 0.01 to 0.1 |
| Cc1ncsc1-c1ccc([C@H](C)NC(=O)[C@@H]2C[C@@H](O)CN2C(=O)[C@@H](NC(=O)COc2ccc(O[C@H]3C[C@@H](NC(=O)C[C@@H]4N=C(c5ccc(Cl)cc5)c5c(sc(C)c5C)-n5c(C)nnc54)C3)nc2)C(C)(C)C)cc1 [Example 119, (2S,4R)-1-[(2S)-3,3-dimethyl-2-[2-({6-[(1,3-cis)-3-{2-[(9S)-7-(4-chlorophenyl)-4,5,13-trimethyl-3-thia-1,8,11,12-tetraazatricyclo[8.3.0.0^2,^6]trideca-2(6),4,7,10,12-pentaen-9-yl]acetamido}cyclobutoxy]pyridin-3-yl}oxy)acetamido]butanoyl]-4-hydroxy-N-[(1S)-1-[4-(4-methyl-1,3-thiazol-5-yl)phenyl]ethyl]pyrrolidine-2-carboxamide] | 96 | < 0.01 |
| Cc1ncsc1-c1ccc([C@H](C)NC(=O)[C@@H]2C[C@@H](O)CN2C(=O)[C@H](C(C)C)n2cc(-c3ccc(N4CCN(C(=O)C[C@@H]5N=C(c6ccc(Cl)cc6)c6c(sc(C)c6C)-n6c(C)nnc65)CC4)nc3)cn2)cc1 [Example 320] | 97.8 | < 0.01 |
| Cc1ncsc1-c1ccc([C@H](C)NC(=O)[C@@H]2C[C@@H](O)CN2C(=O)[C@@H](NC(=O)COCCCOC2CN(C(=O)C[C@@H]3N=C(c4ccc(Cl)cc4)c4c(sc(C)c4C)-n4c(C)nnc43)C2)C(C)(C)C)cc1 [Example 182] | 100 | < 0.01 |
| Cc1ncsc1-c1ccc(CNC(=O)[C@@H]2C[C@@H](O)CN2C(=O)[C@@H](NC(=O)COCCOCCOCCOCCOCCOCCNC(=O)C[C@@H]2N=C(c3ccc(Cl)cc3)c3c(sc(C)c3C)-n3c(C)nnc32)C(C)(C)C)cc1 [Example 4, (2S,4R)-1-[(2S)-2-(20-{2-[(9S)-7-(4-chlorophenyl)-4,5,13-trimethyl-3-thia-1,8,11,12-tetraazatricyclo[8.3.0.0^2,^6]trideca-2(6),4,7,10,12-pentaen-9-yl]acetamido}-3,6,9,12,15,18-hexaoxaicosanamido)-3,3-dimethylbutanoyl]-4-hydroxy-N-{[4-(4-methyl-1,3-thiazol-5-yl)phenyl]methyl}-pyrrolidine-2-carboxamide] | 62.2 | 0.1 to 1 |
| Cc1ncsc1-c1ccc([C@H](C)NC(=O)[C@@H]2C[C@@H](O)CN2C(=O)[C@@H](C(C)C)n2cc(-c3cccc(O[C@H]4C[C@@H](NC(=O)C[C@@H]5N=C(c6ccc(Cl)cc6)c6c(sc(C)c6C)-n6c(C)nnc65)C4)c3)cn2)cc1 [Example 241] | 49.8 | > 1 |
| Cc1ncsc1-c1ccc(CNC(=O)C2C[C@@H](O)CN2C(=O)[C@@H](NC(=O)COCCOCCOCCOCCOc2ccc3c(c2)c2c(C(N)=O)cc(-c4c(C)noc4C)cc2n3Cc2ccccc2)C(C)(C)C)cc1 (stereo partly drawn) [Example 89, 9-Benzyl-2-(dimethyl-1,2-oxazol-4-yl)-6{[1-({1-[4-hydroxy-2-({[4-(4-methyl-1,3-thiazol-5-yl)phenyl]methyl}carbamoyl)pyrrolidin-1-yl]-3,3-dimethyl-1-oxobutan-2-yl}carbamoyl)-2,5,8,11-tetraoxatridecan-13-yl]oxy}-9H-carbazole-4-carboxamide] | 99.5 | 0.01 to 0.1 |
| Cc1ncsc1-c1ccc(CNC(=O)[C@@H]2C[C@@H](O)CN2C(=O)[C@@H](NC(=O)COCCC(=O)N2CC[C@H](NC(=O)C[C@@H]3N=C(c4ccc(Cl)cc4)c4c(sc(C)c4C)-n4c(C)nnc43)C2)C(C)(C)C)cc1 [Example 88] | 85.9 | 0.1 to 1 |
| Cc1ncsc1-c1ccc(CNC(=O)[C@@H]2C[C@@H](O)CN2C(=O)[C@@H](NC(=O)COCCCOCCCCOCCCOc2ccc(NC(=O)C[C@@H]3N=C(c4ccc(Cl)cc4)c4c(sc(C)c4C)-n4c(C)nnc43)cc2)C(C)(C)C)cc1 [Example 13] | 100 | 0.01 to 0.1 |
| Cc1ncsc1-c1ccc([C@H](C)NC(=O)[C@@H]2C[C@@H](O)CN2C(=O)[C@@H](NC(=O)CN2CCC(N3CCN(C(=O)C[C@@H]4N=C(c5ccc(Cl)cc5)c5c(sc(C)c5C)-n5c(C)nnc54)CC3)CC2)C(C)(C)C)cc1 [Example 335] | 97 | < 0.01 |
| Cc1ncsc1-c1ccc(CNC(=O)[C@@H]2C[C@@H](O)CN2C(=O)[C@@H](NC(=O)Cc2ccc(N3CC[C@H](NC(=O)C[C@@H]4N=C(c5ccc(Cl)cc5)c5c(sc(C)c5C)-n5c(C)nnc54)C3)cn2)C(C)(C)C)cc1 [Example 93] | 74.2 | 0.1 to 1 |

Reference: patent US11554171B2, “Compounds and methods for the targeted degradation of bromodomain-containing proteins” (Arvinas Operations, Inc., priority 2015, dated 2023)
